These results are taken from publication PMC2967473, “PP2A1 Binding, Cell Transducing and Apoptotic Properties of Vpr77–92: A New Functional Domain of HIV-1 Vpr Proteins” (PLoS ONE, 2010).

One series deals with HeLa cells. The experiment in a line: Cell penetration and localization of biotinylated peptides. The series is classed as cell-based, human. To be noted: 150 µM biotinylated peptide, 2 h, 37°C, streptavidin-peroxydase/DAB staining, microscopy; for Cell penetration: fixation. The procedure:
A total of 4×10^4 exponentially proliferating HeLa cells growing in a sub confluent monolayer were seeded per well on a Lab-Tek and incubated at 37°C, 5% CO2. Biotinylated peptides were added 48 h later to the cells at different concentrations for different periods of time. Cells were washed twice in PBS, and fixed with absolute ethanol for 10 min at –20°C before addition of 100 µM of streptavidin HRP conjugate After 30 min incubation at 37°C, cells were rinsed twice in PBS and incubated with DAB for around 10 min. Cells were washed in distilled water and mounted for microscopic examination.

The subject of the next series is PP2A1 holoenzyme. Kind of series: Affinity chromatography of PP2A1 on Vpr-T-agarose column, phosphorylase a phosphatase assay. The class given is binding, pig. To be noted: 16 µg PP2A1 on 1 mL column, buffer C pH 7.4, linear gradient to 1 M NaCl, phosphorylase a as substrate. As to the method:
Figure 1 Analysis of HIV-1 Vpr and PP2A1 interaction. (A) 16 µg of PP2A1 holoenzyme purified from pig brain was loaded on a 1 mL HIV-1 strain 89.6-Vpr-T-agarose column equilibrated in buffer C (25 mM TrisHCl pH 7.4, 50 mM NaCl, 0.1 mM EDTA). The column was washed with 10 mL of buffer C and then developed with a 18 mL linear gradient of buffer C to buffer C plus 1 M NaCl. Phosphatase activity of collected fractions was assayed with phosphorylase a as substrat (1U = 1 pm of phosphate liberated by 10 µL of fraction/min). A major peak of phosphatase activity was detected, eluting at 0.3 M NaCl. (B) ECL revelation of PP2A binding assay on cellulose-bound Vpr peptides. 43 overlapping dodecapeptides with a two-amino acid shift scanning the entire 89.6-Vpr sequence (accession number: AAA81039) were synthesized on a cellulose membrane. The membrane was incubated with PP2A1 holoenzyme (upper panel) or PP2A-A subunit (lower panel) and subsequently with anti-PP2A antibodies followed by peroxydase-labelled anti-guinea pig antibodies. (C) Sequence of HIV-1 Vpr protein: sequence of the two PP2A-A binding sites are indicated in bold. These sequences correspond to overlapping sequences of positive dodecapeptides 29 to 32 (PP2A-A subunit incubation) or 39 to 41 (PP2A1 incubation). (D) Co-precipitation of DPT-Vpr peptides with PP2A1 in HeLa cell extracts. […]

Residues, ends and D or L forms follow the SMILES beside them. *: point of attachment. Biotin = O=C1N[C@H]2[C@H](CS[C@H]2CCCCC(=O)*)N1

On to `CC[C@H](C)[C@H](NC(=O)CNC(=O)[C@@H](NC(=O)[C@H](CCCNC(=N)N)NC(=O)[C@H](CO)NC(=O)[C@H](Cc1c[nH]cn1)NC(=O)[C@H](CCCNC(=N)N)NC(=O)CCCC[C@@H]1SC[C@@H]2NC(=O)N[C@@H]21)[C@@H](C)CC)C(=O)N[C@H](C(=O)N[C@@H](CCC(N)=O)C(=O)N[C@@H](CCC(N)=O)C(=O)N[C@@H](CCCNC(=N)N)C(=O)N[C@@H](CCCNC(=N)N)C(=O)N[C@H](C(=O)N[C@@H](CCCNC(=N)N)C(=O)N[C@@H](CC(N)=O)C(=O)NCC(=O)O)[C@@H](C)O)[C@@H](C)CC` [DPT-Vpr1], for which, in the series with HeLa cells, the Cell penetration entry was “penetrate into HeLa cells” and the Intra-cellular localization result was “homogeneous cytoplasm labeling”. For the molecule `CC[C@H](C)[C@H](NC(=O)CNC(=O)[C@@H](NC(=O)[C@H](C)NC(=O)[C@H](CO)NC(=O)[C@H](Cc1c[nH]cn1)NC(=O)[C@H](C)NC(=O)CCCC[C@@H]1SC[C@@H]2NC(=O)N[C@@H]21)[C@@H](C)CC)C(=O)N[C@H](C(=O)N[C@@H](CCC(N)=O)C(=O)N[C@@H](CCC(N)=O)C(=O)N[C@@H](CCCNC(=N)N)C(=O)N[C@@H](CCCNC(=N)N)C(=O)N[C@@H](C)C(=O)N[C@@H](CCCNC(=N)N)C(=O)N[C@@H](CC(N)=O)C(=O)NCC(=O)O)[C@@H](C)CC` [DPT-Vpr3] (Biotin-AHSAIGIIQQRRARNG-OH), in the series with HeLa cells, the Cell penetration result is recorded as “penetrate into HeLa cells” and the Intra-cellular localization result was “homogeneous cytoplasm labeling”.

Turning to `N=C(N)NCCC[C@H](NC(=O)[C@H](CCCNC(=N)N)NC(=O)[C@H](CCC(N)=O)NC(=O)[C@H](CCCNC(=N)N)NC(=O)[C@H](CCCNC(=N)N)NC(=O)[C@H](CCCCN)NC(=O)[C@H](CCCCN)NC(=O)[C@H](CCCNC(=N)N)NC(=O)CNC(=O)[C@H](Cc1ccc(O)cc1)NC(=O)CCCC[C@@H]1SC[C@@H]2NC(=O)N[C@@H]21)C(=O)O` [Tat, reference compound] (Biotin-YGRKKRRQRR-OH), in the series on HeLa cells, the Cell penetration entry is given as “penetrate into HeLa cells” and the Intra-cellular localization result was “homogeneous cytoplasm labeling”.

B1: Vpr-T: full length HIV-1 89.6-Vpr in a 6-his C-term tagged form, expressed in bacteria (protein)
chain: MEQAPEDQGPQREPYNDWTLELLEELKNEAVRHFPRIWLHSLGQHIYETYGDTWTGVEALIRILQQLLFIHFRIGCRHSRIGIIQQRRTRNGASKS
modifications: left off: His6, C-terminal, kept
notes: full length HIV-1 89.6-Vpr in a 6-his C-term tagged form, expressed in bacteria
As for B1, the “NaCl concentration at which bound PP2A1 phosphatase activity elutes from the Vpr-T-agarose column” value in the series with PP2A1 holoenzyme is listed as 0.3 M NaCl.
